# Patent publication US12185720B2, “Chitooligosaccharides and methods for use in enhancing plant growth” (NOVOZYMES BIOAG A/S, priority 2011, dated 2025)
# “Also recorded” adds a separate entry of the source.
# Experiments:
# [1] = test system: Tomato seeds of hybrid tomato var. Royal Mounty; assay: In vitro tomato seedling root growth bioassay (agar medium); type: in vivo; conditions: for tomato seedling root length, compared to LCO: 22° C., FIG. 5
# Protocol: Tomato seeds of hybrid tomato var. Royal Mounty were surface sterilized with 10% bleach solution for 10 minutes followed by 3 rinses with sterilized distilled water. Seeds were then dried in a laminar air flow hood for 3 hours. Seeds were then placed in petri-dishes on solidified agar medium containing various concentrations of different sources of the LCO illustrated in FIG. 1b (manufactured by Darmstadt, Germany and Grenoble, France) (also referred to in the examples as the “soybean LCO”) and the inventive CO illustrated in FIG. 2a (also referred to in the examples as the “pea CO” or “CO-V”). Seedling roots were measured by a hand ruler and root fresh weights were taken in a micro balance at day 7. Growth study was done in a growth chamber at 22° C.
# [2] = test system: Siratro (Macroptelium atropurpureum) root segments; assay: Root hair deformation bioassay, Siratro; conditions: 4 hours in the dark, FIG. 14
# Protocol: (§1) Siratro (Macroptelium atropurpureum) seeds were germinated on moist filter paper in petriplates. When seedlings roots are about 1-inches long, they are severed from the seedlings and treated with 2 ml of 10^−8M treatment solutions in test tubes for 4 hours in the dark. After treatment time is over the solutions are dyed with Congo Red for 10 minutes. After that root segments are observed under a compound microscope to count the number of deformed root hairs in the most sensitive zone of the root segment. Root hair deformation bioassay was also performed using Red Clover in a similar fashion like Siratro above and only visual observation was made and recorded in text form.
# Sorghum seeds = assay: Sorghum seed germination in petriplates; type: in vivo; conditions: CO 10^−8 M, LCO 10^−8 M alone or CO 10^−8 with LCO 10^−9; after 5 days; FIG. 29
# Protocol: Sorghum seeds were germinated in petriplates containing liquid treatment solutions. Seedlings were harvested after 5 days and their roots were measured using WinRHIZO scanner.
# Red Clover seeds = assay: Seed germination in multiple crops: Red Clover; type: in vivo; conditions: 24 h, dark, 22° C., FIG. 23
# Protocol: (§2) Similar to the seed germination experiment mentioned above, seeds of different crops were placed on moist filter paper in petriplates containing 5 ml liquid in each. Petriplates with seeds were then kept in the dark at 22° C.
# Red Clover root hairs = assay: Root hair deformation bioassay, Red Clover; conditions: compared to LCO
# Protocol: as §1
# Cotton seeds = assay: Cotton seed treatment (greenhouse); type: in vivo; conditions: seed treatment 10^−8 M, 3 fl oz/100 lbs of seed; 4 wks; FIG. 26
# Protocol: Cotton seeds were treated with LCO and CO 10^−8 M treatment solutions at a dose rate of 3 fl oz/100 lbs of seed. Seeds were planted the very next day in plastic pots containing 1:1 sand:perlite mixture. Seeds were grown in greenhouse for 4 wks and then they were harvested.
# canola seeds = assay: Canola seed germination in petriplates; type: in vivo; conditions: 10^−9 M
# Protocol: (§3) In petriplates on moist filter paper moistened with 10^−9 M treatment solution, canola and wheat seeds were plated for germination. At 18 h after plating, Pea CO induced more canola and wheat seed germination as compared to Pea LCO. Over the period of 21 to 24 hours, seed germination rate for LCO and CO leveled up.
# [3] = test system: wheat seeds (spring wheat); assay: Wheat seed germination and root length in petriplates (Example 8); type: in vivo; conditions: 5 days after plating; FIG. 20
# Protocol: Corn and wheat seeds were plated in petriplates containing 5 ml of treatment solution on a filter paper. Corn seeds were placed on moist filter paper for germination. Similarly, wheat seeds (spring wheat) were placed in petriplates. […] Roots were harvested and their length measured by WinRhizo system.
# wheat seeds = assay: Wheat seed germination in petriplates (Example 6); type: in vivo; conditions: 10^−9 M
# Protocol: as §3
# [4] = test system: Hybrid corn seeds (92L90); assay: Corn seed treatment (greenhouse, two trials); type: in vivo; conditions: 3 fl oz/100 lbs of seed; for dry weight increase over LCO: 10^-8 M
# Protocol: Two seed treatment experiments using only Pea LCO, Pea CO and the CO mixtures obtained from chitosan by enzymatic process (structurally distinct from the Pea CO, and also referred to in the examples as the “China CO”) were performed in greenhouse. Hybrid corn seeds (92L90, Peterson Farm, USA) were treated with treatment solution (10^-8 M) at the rate of 3 fl oz/100 lbs of seed. Seeds were planted in plastic pots containing 1:1 Sand:Perlite mixture. Seeds were allowed to grow for about 3-4 weeks and then they were harvested and their dry weight measured.
# Cotton plants = assay: Cotton foliar application with micronutrients (greenhouse); type: in vivo; conditions: foliar spray Pea CO 10^−8 M, 4 wks after treatment, compared to control
# Protocol: Cotton plants were grown from seeds in greenhouse plastic pots containing sand:perlite in a 1:1 mixture. When seedlings were at the V-stage, they were foliar-sprayed with Pea CO (10^−8 M) and CO plus micronutrients (Ca-pantothenate and boric acid), each in minute amounts. Plants were harvested 4 wks after treatment. Before harvest, leaf greenness was measured by SPAD chlorophyll meter.
# corn = assay: Corn field trials, foliar application, grain yield; type: in vivo
# Green Mung seeds = assay: Seed germination in multiple crops: Green Mung; type: in vivo; conditions: 24 h, dark, 22° C., FIG. 23
# Protocol: as §2
# Lab Lab seeds = assay: Seed germination in multiple crops: Lab Lab; type: in vivo; conditions: 30 h, dark, 22° C., FIG. 23
# Protocol: as §2
# [5] = test system: Common vetch (Vicia sativa) seeds; assay: Common vetch seed germination and root length; type: in vivo; conditions: FIG. 21
# Protocol: Common vetch seeds were plated in petriplates containing 5 ml of treatment solutions on filter paper. Seed germination at 22° C. was counted after 24 h and seedling root length was measured at day 5 with WinRhizo system.
smiles,measurement,setting,value
CC(=O)NC1C(O)OC(CO)C(OC2OC(CO)C(OC3OC(CO)C(OC4OC(CO)C(OC5OC(CO)C(O)C(O)C5N)C(O)C4NC(C)=O)C(O)C3NC(C)=O)C(O)C2NC(C)=O)C1O (stereo not drawn) [Pea CO],"average root growth from all 3 concentrations, compared to LCOs",[1]; FIGS. 7 and 8,significantly better than LCOs
same,"seedling root fresh weight, compared to LCO","[1]; all three levels of concentrations (10^−7, 10^−8 and 10^−9 M), day 7, FIG. 6",outperformed LCO
same,"tomato seedling root length, compared to LCO","[1]; at 10^−7M and 10^−9M, day 7",better
same,"tomato seedling root length, compared to LCO","[1]; at 10^−8M, day 7",equal
same,"root fresh weight, compared to control seedlings","[1]; day 7, control water",significantly better than control seedlings
same,"root length, compared to control seedlings","[1]; day 7, control water",significantly better than control seedlings
same,root hair deformation,[2]; 10^−8M treatment solutions,induced root hair deformation
same,root hair deformation compared to LCO or CO,[2]; 10^−8M,equal to LCO
same,sorghum seedling root length,Sorghum seeds,increased seedling root length
same,seed germination,Red Clover seeds,better germination
same,root hair deformation pattern (visual observation),Red Clover root hairs,much better and prominent; also recorded: best root hair deformer
same,cotton plant dry weight,Cotton seeds,no significant differences; also recorded: relatively higher
same,total plant dry weight increase over control,Cotton seeds,3.29%
same,seed germination at 18 h as compared to Pea LCO,canola seeds; FIG. 15,more
same,seed germination rate over 21 to 24 hours,canola seeds; LCO versus CO,leveled up
same,increase in root length in wheat,[3],not statistically significant but consistently greater
same,"wheat root length, CO compared to LCO",[3],outperformed LCO
same,seed germination at 18 h as compared to Pea LCO,wheat seeds; FIG. 16,more
same,seed germination rate over 21 to 24 hours,wheat seeds; LCO versus CO,leveled up
same,dry weight increase over LCO,"[4]; first trial, FIG. 10",11.84%
same,dry weight increase over LCO,"[4]; second trial, FIG. 11",12.63%
same,"shoot, root and total biomass increase over LCO","[4]; treatment solution 10^-8 M, 3-4 weeks, both experiments",greater
same,leaf greenness (SPAD chlorophyll meter),Cotton plants; FIG. 30,significantly increased
same,average dry plant weight,Cotton plants; FIG. 31,numerical increase
same,"YIELD, Response Increase",corn,4.8 % of Control
same,CO mean yield better than foliar LCO,corn; CO minus LCO,5.0 bu/A
same,higher yield increase than foliar LCO,corn; CO minus LCO,2.6%
same,"trials with a positive response, better than foliar LCO",corn; CO minus LCO,18.8%
same,yield enhancement as a foliar treatment (conclusion),corn; CO versus LCO,at least twice better
same,"YIELD, Mean (N = 16)",corn; four ounces per acre with glyphosate,201.8 bu/A
same,"YIELD, Response",corn; over Control,9.2 bu/A
same,Positive Yield Response,corn; percent of the 16 trials,93.8%
same,seed germination,Green Mung seeds,better germination
same,seed germination,Lab Lab seeds,better germination
same,early seed germination,"[5]; 22° C., counted after 24 h",induced early seed germination
same,more germination over control and LCO,[5]; one day after plating,25%
